Results on 7 compounds are retold here after patent US5714483A, “Antitussive” (TORAY Industries, Inc., priority 1992, dated 1998).

Assay [1] relates to capsaicin-induced cough. Briefly: Capsaicin-induced cough in rats (60 μM capsaicin), ED50, Example 3. Type of assay: in vivo, SD male rats. To be noted: Rattus norvegicus, ip, 0.5 h; i.p.; capsaicin 60 μM, 30 minutes after administration; read-out: ED50 (dose at which the number of cough is suppressed to half). Here is the method: (§1) SD male rats (body weight: 250-350 g) were used under non-anesthesic condition.
(§2) Respiration and cough were measured by plestimography. The body plestimograph used has a plastic cylinder having a diameter of 7.5 cm and a length of 15 cm, and consists of a cylindrical part in which the body of the rat is inserted and a cap part which covers the head. In the upper portion of the cylinder, a vent was formed so as to connect a respiration flow meter. To tightly close the cylinder, a collar made of rubber or celluloid was put on the neck of the rat. In the cap part, an inlet for introducing capsaicin and a ventilating hole were formed. The respiration of the rats was measured by measuring the movement of the thorax due to the respiration in terms of the change in the inner volume of the cylinder by the respiration flow meter. […] This large change is distinguished from the normal respiration and measured by the respiration flow meter. The number of this large change was measured, which is defined as the number of cough.
Capsaicin (60 μM) was converted to mist by ultrasonic nebulizer and the mist was sent by an artificial respirator into the cap covering the head of the rat through a silicone tube, thereby inducing cough. Capsaicin was transferred by the artificial respirator for inhalation at a dose of 10 ml/time and at a rate of 70 times/min.
The rats were made to inhale capsaicin for 5 minutes at 270 minutes before the administration of the test compound. Induction of cough was confirmed during the inhalation of capsaicin. The rats were made to inhale capsaicin for 5 minutes at 30 minutes after administration of the test compound, and the number of induced cough during this period was measured. The antitussive effect was evaluated in terms of the suppression rate, that is, the ratio of the number of cough after administration of the test compound to the number of cough before administration of the test compound. Capsaicin was dissolved in saline. The test compounds were dissolved in aqueous 10% DMSO solution. In any case, the test compounds were intraperitoneally administered. The effectiveness of each of the test compounds is shown in terms of ED50 value which means the dose at which the number of cough is suppressed to half.

The subject of assay [2] is capsaicin-induced cough. The assay can be described thus: Capsaicin-induced cough in rats (30 μM capsaicin), plethysmography, Examples 1 and 2. The format is in vivo, SD male rats. The protocol: as §1, §2
Capsaicin (30 μM) was converted to mist by ultrasonic nebulizer and the mist was sent by an artificial respirator into the cap covering the head of the rat through a silicone tube, thereby inducing cough. Capsaicin was transferred by the artificial respirator for inhalation at a dose of 20 ml/time and at a rate of 30 times/min.
The rats were made to inhale capsaicin for 5 minutes at 15 minutes before the administration of the test compound. Induction of cough was confirmed during the inhalation of capsaicin. The rats were made to inhale capsaicin for 5 minutes at 15, 60 and 120 minutes after administration of the compound, and the number of induced cough was measured during this period. The antitussive effect was evaluated in terms of the suppression rate, that is, the ratio of the number of cough after administration of the test compound to the number of cough before administration of the compound. The measured suppression rates were compared using Mann Whiteny U-test. If there is a difference at significant level (P<0.05), the difference was evaluated as significant. Capsaicin was dissolved in 10% ethanol and 10% Tween 80 and diluted with saline. The test compound was dissolved in saline. In any case, the test compound was intraperitoneally administered.

For `Oc1ccc2c3c1O[C@H]1c4nc5ccccc5cc4C[C@@]4(O)[C@@H](C2)N(CC2CC2)CC[C@]314` [Compound 4, 17-cyclopropylmethyl-6,7-didehydro-4,5α-epoxy-3,14β-dihydroxy-6,7,2',3'-quinolinomorphinan], the ED50 (commonly the dose that gives a 50% effect, or the effect in half of the subjects) in the assay with capsaicin-induced cough [1] stood at 0.984 mg/kg.

For `Oc1ccc2c3c1O[C@H]1c4[nH]c5c6c(ccc5c4C[C@@]4(O)[C@@H](C2)N(CC2CC2)CC[C@]314)CCCC6` [Compound 2, 17-cyclopropylmethyl-6,7-didehydro-4,5α-epoxy-3,14β-dihydroxy-6',7'-cyclohexeno-6,7,2',3'-indolomorphinan], the ED50 with capsaicin-induced cough [1] stood at 0.0395 mg/kg.

With `COc1cc(CNC(=O)CCCC/C=C/C(C)C)ccc1O` [capsaicin, reference compound], the “number of cough induced by inhalation of capsaicin” value with capsaicin-induced cough [2] (capsaicin 30 μM mist, 5 min inhalation) is reported as 22.5±1.2 times/5 minutes.

Consider `COc1ccc2c3c1O[C@H]1c4[nH]c5ccccc5c4C[C@@]4(O)[C@@H](C2)N(CC2CC2)CC[C@]314` [Compound 7, 17-cyclopropylmethyl-6,7-didehydro-4,5α-epoxy-14β-hydroxy-3-methoxy-6,7,2',3'-indolomorphinan], for which the ED50 in the assay with capsaicin-induced cough [1] amounted to 0.0639 mg/kg.

For the compound `Oc1ccc2c3c1O[C@H]1c4[nH]c5c(ccc6cnccc65)c4C[C@@]4(O)[C@@H](C2)N(CC2CC2)CC[C@]314` [Compound 5, 17-cyclopropylmethyl-6,7-didehydro-4,5α-epoxy-3,14β-dihydroxy-[6',7'-b]-pyrido-6,7,2',3'-indolomorphinan], the ED50 in the assay on capsaicin-induced cough [1] stood at 0.0797 mg/kg.

Take `COc1ccc2c3c1O[C@H]1c4[nH]c5c(ccc6cnccc65)c4C[C@@]4(O)[C@@H](C2)N(CC2CC2)CC[C@]314` [Compound 6, 17-cyclopropylmethyl-6,7-didehydro-4,5α-epoxy-14β-hydroxy-3-methoxy-[6',7'-b]-pyrido-6,7,2',3'-indolomorphinan]: the median effective dose (ED50) with capsaicin-induced cough [1] is 0.0413 mg/kg.

Take `Oc1ccc2c3c1O[C@H]1c4[nH]c5ccccc5c4C[C@@]4(O)[C@@H](C2)N(CC2CC2)CC[C@]314` [Compound 1, 17-cyclopropylmethyl-6,7-didehydro-4,5α-epoxy-3,14β-dihydroxy-6,7,2',3'-indolomorphinan]: in the assay with capsaicin-induced cough [2] (0.03 mg/kg to 1 mg/kg, i.p., 15 minutes after administration), the “dose-dependence of antitussive effect” value is given as “dose-dependent antitussive effect”. Also, in the assay with capsaicin-induced cough [2] (1 mg/kg, i.p.), the antitussive effect result is given as “a significant antitussive effect was observed” and the “peak of the antitussive effect (time after administration)” value is 15 min. The “antitussive effect at 120 minutes compared with saline group” value with capsaicin-induced cough [2] (1 mg/kg, i.p., 120 minutes after administration, vs saline group) is “a significant antitussive effect was observed even 120 minutes after the administration”. In the assay with capsaicin-induced cough [2] (Compound 1 1 mg/kg vs morphine 0.3 mg/kg, i.p., 15 minutes after administration), the “antitussive effect compared with morphine (0.3 mg/kg)” value was “substantially identical to that by morphine (0.3 mg/kg)”.
